The values that follow are results of earlier work, collected in patent US20070025918A1, “Magnetic resonance imaging (MRI) agents: water soluble carbon-13 enriched fullerene and carbon nanotubes for use with dynamic nuclear polarization” (General Electric Company, priority 2005, published 2007).

For data set [1] the following is noted: THF and acetone.

As to C60F60, the solubility in water entry is listed as “virtually insoluble”. In data set [1], the “solubility in organic solvents” value was “soluble”.
